Experimental data: the supplement of paper PMC10307832

Experiments:
Experiment in all cases: relative viability (nuclei count vs DMSO), 5 days (fraction); higher = more cells survive
NCI-H1792 = test system: NCI-H1792
Procedure, shortened: (§1)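 Relative viability was taken as the ratio of nuclei in treated wells to nuclei in vehicle wells. Lung cancer cell lines in 1536-well plates received compounds by pin tool one day after seeding, either one drug alone or a fixed anchor-drug dose plus five library-drug doses (not always all listed) in √10 steps. Nuclei were counted on 4× images after 5 days of treatment, and values are medians of duplicate plates.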

NCI-H596 = test system: NCI-H596
Procedure, shortened: as §1

HARA = test system: HARA
Procedure, shortened: as §1

HCC-366 = test system: HCC-366
Procedure, shortened: as §1

NCI-H1734 = test system: NCI-H1734
Procedure, shortened: as §1

NCI-H2170 = test system: NCI-H2170
Procedure, shortened: as §1

NCI-H1395 = test system: NCI-H1395
Procedure, shortened: as §1

NCI-H2342 = test system: NCI-H2342
Procedure, shortened: as §1

HCC-827 = test system: HCC-827
Procedure, shortened: as §1

NCI-H2405 = test system: NCI-H2405
Procedure, shortened: as §1

LOU-NH91 = test system: LOU-NH91
Procedure, shortened: as §1

NCI-H1437 = test system: NCI-H1437
Procedure, shortened: as §1

BEN = test system: BEN
Procedure, shortened: as §1

HCC-44 = test system: HCC-44
Procedure, shortened: as §1

NCI-H647 = test system: NCI-H647
Procedure, shortened: as §1

LC-2-ad = test system: LC-2-ad
Procedure, shortened: as §1

NCI-H2087 = test system: NCI-H2087
Procedure, shortened: as §1

EKVX = test system: EKVX
Procedure, shortened: as §1

NCI-H1355 = test system: NCI-H1355
Procedure, shortened: as §1

`COc1cc(N2CCC(C(N)=O)CC2)ccc1Nc1nc(N)c(Cl)c(Nc2ccccc2S(=O)(=O)C(C)C)n1` [HG-5-88-01] + NC(=O)Nc1cc(-c2cccc(F)c2)sc1C(=O)N[C@H]1CCCNC1 [AZD7762] (partner 0.2 µM) showed a relative viability (NCI-H1792; first compound 0.04 µM) of 0.752, a relative viability (NCI-H1792; first compound 0.1265 µM) of 0.648 and a relative viability (NCI-H1792; first compound 0.4 µM) of 0.645. It also gave a relative viability (NCI-H1792; first compound 1.265 µM) of 0.581, a relative viability (NCI-H1792; first compound 4 µM) of 0.557 and a relative viability (NCI-H596; first compound 0.04 µM) of 1.05. It also gave a relative viability (NCI-H596; first compound 0.1265 µM) of 1.07, a relative viability (NCI-H596; first compound 0.4 µM) of 1.04 and a relative viability (NCI-H596; first compound 1.265 µM) of 1.06. The relative viability (NCI-H596; first compound 4 µM) was 0.697, the relative viability (HARA; first compound 0.04 µM) was 0.493 and the relative viability (HARA; first compound 0.1265 µM) was 0.313. For the same compound, the relative viability (HARA; first compound 0.4 µM) was 0.332, the relative viability (HARA; first compound 1.265 µM) was 0.352 and the relative viability (HARA; first compound 4 µM) was 0.322. The relative viability (HCC-366; first compound 0.04 µM) was 0.286, the relative viability (HCC-366; first compound 0.1265 µM) was 0.294 and the relative viability (HCC-366; first compound 0.4 µM) was 0.249. The relative viability (HCC-366; first compound 1.265 µM) was 0.234, the relative viability (HCC-366; first compound 4 µM) was 0.199 and the relative viability (NCI-H1734; first compound 0.04 µM) was 0.515. For the same compound, the relative viability (NCI-H1734; first compound 0.1265 µM) was 0.514, the relative viability (NCI-H1734; first compound 0.4 µM) was 0.52 and the relative viability (NCI-H1734; first compound 1.265 µM) was 0.511. It also gave a relative viability (NCI-H1734; first compound 4 µM) of 0.724, a relative viability (NCI-H2170; first compound 0.04 µM) of 0.819 and a relative viability (NCI-H2170; first compound 0.1265 µM) of 0.878. For the same compound, the relative viability (NCI-H2170; first compound 0.4 µM) was 0.907, the relative viability (NCI-H2170; first compound 1.265 µM) was 0.402 and the relative viability (NCI-H2170; first compound 4 µM) was 0.934. The relative viability (NCI-H1395; first compound 0.04 µM) was 0.366, the relative viability (NCI-H1395; first compound 0.1265 µM) was 0.403 and the relative viability (NCI-H1395; first compound 0.4 µM) was 0.418. For the same compound, the relative viability (NCI-H1395; first compound 1.265 µM) was 0.384, the relative viability (NCI-H1395; first compound 4 µM) was 0.362 and the relative viability (NCI-H2342; first compound 0.04 µM) was 0.47. For the same compound, the relative viability (NCI-H2342; first compound 0.1265 µM) was 0.489, the relative viability (NCI-H2342; first compound 0.4 µM) was 0.447 and the relative viability (NCI-H2342; first compound 4 µM) was 0.408. The relative viability (HCC-827; first compound 0.04 µM) was 0.313, the relative viability (HCC-827; first compound 0.1265 µM) was 0.184 and the relative viability (HCC-827; first compound 0.4 µM) was 0.167. For the same compound, the relative viability (HCC-827; first compound 1.265 µM) was 0.129, the relative viability (HCC-827; first compound 4 µM) was 0.123 and the relative viability (NCI-H2405; first compound 0.04 µM) was 0.769. The relative viability (NCI-H2405; first compound 0.1265 µM) was 0.659, the relative viability (NCI-H2405; first compound 0.4 µM) was 0.569 and the relative viability (NCI-H2405; first compound 1.265 µM) was 0.638. For the same compound, the relative viability (NCI-H2405; first compound 4 µM) was 0.504, the relative viability (LOU-NH91; first compound 0.04 µM) was 0.809 and the relative viability (LOU-NH91; first compound 0.1265 µM) was 0.677. For the same compound, the relative viability (LOU-NH91; first compound 0.4 µM) was 0.649, the relative viability (LOU-NH91; first compound 1.265 µM) was 0.551 and the relative viability (LOU-NH91; first compound 4 µM) was 0.514. For the same compound, the relative viability (NCI-H1437; first compound 0.04 µM) was 1.13, the relative viability (NCI-H1437; first compound 0.1265 µM) was 1.13 and the relative viability (NCI-H1437; first compound 0.4 µM) was 1.07. The relative viability (NCI-H1437; first compound 4 µM) was 1.2, the relative viability (BEN; first compound 0.04 µM) was 0.47 and the relative viability (BEN; first compound 0.1265 µM) was 0.69. The relative viability (BEN; first compound 0.4 µM) was 0.635, the relative viability (BEN; first compound 1.265 µM) was 0.615 and the relative viability (BEN; first compound 4 µM) was 0.576. It also gave a relative viability (HCC-44; first compound 0.04 µM) of 0.959, a relative viability (HCC-44; first compound 0.1265 µM) of 0.999 and a relative viability (HCC-44; first compound 0.4 µM) of 0.995. For the same compound, the relative viability (HCC-44; first compound 1.265 µM) was 1.03, the relative viability (HCC-44; first compound 4 µM) was 0.957 and the relative viability (NCI-H647; first compound 0.04 µM) was 0.455. The relative viability (NCI-H647; first compound 0.1265 µM) was 0.405, the relative viability (NCI-H647; first compound 0.4 µM) was 0.472 and the relative viability (NCI-H647; first compound 1.265 µM) was 0.394. For the same compound, the relative viability (NCI-H647; first compound 4 µM) was 0.433, the relative viability (LC-2-ad; first compound 0.04 µM) was 0.888 and the relative viability (LC-2-ad; first compound 0.1265 µM) was 0.76. It also gave a relative viability (LC-2-ad; first compound 0.4 µM) of 0.787, a relative viability (LC-2-ad; first compound 1.265 µM) of 0.857 and a relative viability (LC-2-ad; first compound 4 µM) of 0.87. It also gave a relative viability (NCI-H2087; first compound 0.04 µM) of 1.23, a relative viability (NCI-H2087; first compound 0.1265 µM) of 1.26 and a relative viability (NCI-H2087; first compound 0.4 µM) of 1.45. For the same compound, the relative viability (NCI-H2087; first compound 1.265 µM) was 1.14, the relative viability (NCI-H2087; first compound 4 µM) was 1.17 and the relative viability (EKVX; first compound 0.04 µM) was 0.673. The relative viability (EKVX; first compound 0.1265 µM) was 0.622, the relative viability (EKVX; first compound 0.4 µM) was 0.695 and the relative viability (EKVX; first compound 4 µM) was 0.527. It also gave a relative viability (NCI-H1355; first compound 0.04 µM) of 0.714, a relative viability (NCI-H1355; first compound 0.1265 µM) of 0.731 and a relative viability (NCI-H1355; first compound 0.4 µM) of 0.762. For the same compound, the relative viability (NCI-H1355; first compound 1.265 µM) was 0.69 and the relative viability (NCI-H1355; first compound 4 µM) was 0.474.
